# Measurements published in US20250387366A1, “TOPICAL OCULAR DELIVERY OF CROMAKALIM” (QLARIS BIO, INC., priority 2022, published 2025).
# Like-named read-outs stand apart in the source and are kept apart here.
# Assays:
# [1] = Solubility limit of levcromakalim in water (literature); type: physicochemical; conditions: converted from 0.48 mg/ml
# Text: Therefore, the Chiang Lin tested material undoubtedly had insoluble material which would have a deleterious effect on the eye and nullify the results. The Hamilton article also stated that cromakalim is soluble in ethanol, DMSO and PEG, none of which would be acceptable as the topical ocular carrier for human administration.
# [2] = reported by SmithKline Beecham 1993 (Hamilton et al.); cited from earlier work
# [3] = Toxicokinetics of levcromakalim in plasma, BID T.O. bilateral formulation 3d for 28 days in rabbits (Example 12, Table 11); type: in vivo, rabbit; conditions: for AUC(0-t) / Cmax / Tmax / half-life: DB, rabbit, plasma, topical or ocular; for tlast: in h (unit assumed)
# Method: Plasma concentrations of levcromakalim were evaluated in DB rabbits after twice a day (BID) oculus uterque (OU, both eyes) topical ophthalmic (T.O.) administration of formulation 3d for 28 days at dose levels of 0, 0.012, 0.03, and 0.06 mg/eye/dose.
# Plasma concentrations of levcromakalim were evaluated in DB rabbits after BID OU T.O. administration of three concentrations of formulation 3d at dose levels of 0, 0.012, 0.03, and 0.06 mg/eye/dose (0, 0.024, 0.06, and 0.12 mg/eye/day respectively or 0.030% [1.0 mM], 0.075% [2.5 mM], or 0.15% [5 mM] respectively) for 28 days. Plasma was collected from 3 animals/dose group at pre-dose, 0.5, 1, 2, 3, 4, 6, and 12 hours post-first dose on Days 1 and 28.
# [4] = system: patients with primary open-angle glaucoma; conditions: Phase 2; cited from earlier work
# KATP channels = conditions: in the presence of ATP (Brayden et al. 1991); cited from earlier work
# [5] = female, 0.012 mg, females, 0.012 mg/eye/dose BID OU T.O. formulation 3d, Day 1, rabbit plasma
# [6] = female, 0.012 mg, females, 0.012 mg/eye/dose BID OU T.O. formulation 3d, Day 28, rabbit plasma
# [7] = female, 0.03 mg, females, 0.03 mg/eye/dose BID OU T.O. formulation 3d, Day 1, rabbit plasma
# [8] = female, 0.03 mg, females, 0.03 mg/eye/dose BID OU T.O. formulation 3d, Day 28, rabbit plasma
# [9] = female, 0.06 mg, females, 0.06 mg/eye/dose BID OU T.O. formulation 3d, Day 1, rabbit plasma
# [10] = female, 0.06 mg, females, 0.06 mg/eye/dose BID OU T.O. formulation 3d, Day 28, rabbit plasma
# [11] = females, 0.012 mg/eye/dose BID OU T.O. formulation 3d, Day 1, rabbit plasma
# [12] = females, 0.012 mg/eye/dose BID OU T.O. formulation 3d, Day 28, rabbit plasma
# [13] = females, 0.03 mg/eye/dose BID OU T.O. formulation 3d, Day 1, rabbit plasma
# [14] = females, 0.03 mg/eye/dose BID OU T.O. formulation 3d, Day 28, rabbit plasma
# [15] = females, 0.06 mg/eye/dose BID OU T.O. formulation 3d, Day 1, rabbit plasma
# [16] = females, 0.06 mg/eye/dose BID OU T.O. formulation 3d, Day 28, rabbit plasma
# [17] = male, 0.012 mg, males, 0.012 mg/eye/dose BID OU T.O. formulation 3d, Day 1, rabbit plasma
# [18] = male, 0.012 mg, males, 0.012 mg/eye/dose BID OU T.O. formulation 3d, Day 28, rabbit plasma
# [19] = male, 0.03 mg, males, 0.03 mg/eye/dose BID OU T.O. formulation 3d, Day 1, rabbit plasma
# [20] = male, 0.03 mg, males, 0.03 mg/eye/dose BID OU T.O. formulation 3d, Day 28, rabbit plasma
# [21] = male, 0.06 mg, males, 0.06 mg/eye/dose BID OU T.O. formulation 3d, Day 1, rabbit plasma
# [22] = male, 0.06 mg, males, 0.06 mg/eye/dose BID OU T.O. formulation 3d, Day 28, rabbit plasma
# [23] = males, 0.012 mg/eye/dose BID OU T.O. formulation 3d, Day 1, rabbit plasma
# [24] = males, 0.012 mg/eye/dose BID OU T.O. formulation 3d, Day 28, rabbit plasma
# [25] = males, 0.03 mg/eye/dose BID OU T.O. formulation 3d, Day 1, rabbit plasma
# [26] = males, 0.03 mg/eye/dose BID OU T.O. formulation 3d, Day 28, rabbit plasma
# [27] = males, 0.06 mg/eye/dose BID OU T.O. formulation 3d, Day 1, rabbit plasma
# [28] = males, 0.06 mg/eye/dose BID OU T.O. formulation 3d, Day 28, rabbit plasma
smiles,measurement,setting,value
CC1(C)Oc2ccc(C#N)cc2[C@@H](N2CCCC2=O)[C@@H]1O [levcromakalim],solubility limit in water,[1],0.048 % w/w
same,solubility limit in water,[2],480 µg/mL
same,AUC(0-t),[3]; [5],0.57 ng·h/mL
same,Cmax,[3]; [5],0.64 ng/mL
same,Tmax,[3]; [5],1.67 h
same,half-life,[3]; [5],1.84 h
same,AUC(0-t),[3]; [6],0.051 ng·h/mL
same,Cmax,[3]; [6],0.56 ng/mL
same,Tmax,[3]; [6],0.33 h
same,AUC(0-t),[3]; [7],3.99 ng·h/mL
same,Cmax,[3]; [7],1.75 ng/mL
same,Tmax,[3]; [7],0.67 h
same,half-life,[3]; [7],1.7 h
same,AUC(0-t),[3]; [8],3.58 ng·h/mL
same,Cmax,[3]; [8],1.76 ng/mL
same,Tmax,[3]; [8],0.67 h
same,half-life,[3]; [8],2.19 h
same,AUC(0-t),[3]; [9],8.89 ng·h/mL
same,Cmax,[3]; [9],2.85 ng/mL
same,Tmax,[3]; [9],1 h
same,half-life,[3]; [9],1.77 h
same,Cmax,[3]; [10],2.06 ng/mL
same,Tmax,[3]; [10],1.2 h
same,half-life,[3]; [10],1.97 h
same,AUCtlast/Dose,[3]; [11],23.74 ng·h/mL/mg
same,Cmax/Dose,[3]; [11],26.67 ng/mL/mg
same,tlast,[3]; [11],2.00
same,AUCtlast/Dose,[3]; [12],21.11 ng·h/mL/mg
same,Cmax/Dose,[3]; [12],23.21 ng/mL/mg
same,tlast,[3]; [12],2.25
same,AUCtlast/Dose,[3]; [13],66.44 ng·h/mL/mg
same,Cmax/Dose,[3]; [13],29.22 ng/mL/mg
same,tlast,[3]; [13],3.67
same,AUCtlast/Dose,[3]; [14],59.64 ng·h/mL/mg
same,Cmax/Dose,[3]; [14],29.41 ng/mL/mg
same,tlast,[3]; [14],3.33
same,AUCtlast/Dose,[3]; [15],74.06 ng·h/mL/mg
same,Cmax/Dose,[3]; [15],23.73 ng/mL/mg
same,tlast,[3]; [15],4.80
same,AUCtlast,[3]; [16],6.05 ng·h/mL
same,AUCtlast/Dose,[3]; [16],50.39 ng·h/mL/mg
same,Cmax/Dose,[3]; [16],17.13 ng/mL/mg
same,tlast,[3]; [16],4.80
same,AUC(0-t),[3]; [17],0.94 ng·h/mL
same,Cmax,[3]; [17],0.77 ng/mL
same,Tmax,[3]; [17],1.17 h
same,AUC(0-t),[3]; [18],0.14 ng·h/mL
same,Cmax,[3]; [18],0.37 ng/mL
same,Tmax,[3]; [18],0.33 h
same,AUC(0-t),[3]; [19],3.96 ng·h/mL
same,Cmax,[3]; [19],2.26 ng/mL
same,Tmax,[3]; [19],0.67 h
same,half-life,[3]; [19],1.28 h
same,AUC(0-t),[3]; [20],2.53 ng·h/mL
same,Cmax,[3]; [20],1.68 ng/mL
same,Tmax,[3]; [20],0.5 h
same,half-life,[3]; [20],2.88 h
same,AUC(0-t),[3]; [21],5.64 ng·h/mL
same,Cmax,[3]; [21],2.61 ng/mL
same,Tmax,[3]; [21],0.7 h
same,half-life,[3]; [21],1.72 h
same,Cmax,[3]; [22],2.58 ng/mL
same,Tmax,[3]; [22],0.6 h
same,half-life,[3]; [22],2.29 h
same,AUCtlast/Dose,[3]; [23],39.23 ng·h/mL/mg
same,Cmax/Dose,[3]; [23],32.12 ng/mL/mg
same,tlast,[3]; [23],1.50
same,AUCtlast/Dose,[3]; [24],5.78 ng·h/mL/mg
same,Cmax/Dose,[3]; [24],15.40 ng/mL/mg
same,tlast,[3]; [24],0.500
same,AUCtlast/Dose,[3]; [25],66.06 ng·h/mL/mg
same,Cmax/Dose,[3]; [25],28.88 ng/mL/mg
same,tlast,[3]; [25],3.00
same,AUCtlast/Dose,[3]; [26],42.11 ng·h/mL/mg
same,Cmax/Dose,[3]; [26],28.05 ng/mL/mg
same,tlast,[3]; [26],2.33
same,AUCtlast/Dose,[3]; [27],47.04 ng·h/mL/mg
same,Cmax/Dose,[3]; [27],21.78 ng/mL/mg
same,tlast,[3]; [27],3.60
same,AUCtlast,[3]; [28],6.11 ng·h/mL
same,AUCtlast/Dose,[3]; [28],50.96 ng·h/mL/mg
same,Cmax/Dose,[3]; [28],21.48 ng/mL/mg
same,tlast,[3]; [28],4.20
CC1(C)Oc2ccc(C#N)cc2[C@@H](N2CCCC2=O)[C@@H]1OP(=O)(O)O [QLS-101],hyperemia (eye redness),[4],no evidence of hyperemia
same,safety and tolerability profile,[4],favorable safety and tolerability profile
CC1(C)Oc2ccc(C#N)cc2C(N2CCCC2=O)C1O (centres unmarked) [Cromakalim],increase of open-state probability (Popen) of single KATP channels,KATP channels,more than 9 fold
